Assay results reported in article PMC11926855, “Photochemistry of Receptor-Bound Flavin Resolved in Living Human Cells by Infrared Spectroscopy” (Journal of the American Chemical Society, 2025).

Experiments:
pCRY-PHR = biological target: T1, pCRY-PHR (Chlamydomonas reinhardtii, UniProt Q42696); assay: light-induced in-cell ATR-FTIR difference spectroscopy (ICIRD); assay type: cell-based; details: living HEK cells, 37 °C, blue light; noncovalent; oxidized flavin to flavin neutral radical
T1 construct: gene CPH1; photolyase homology region (PHR) without CCT, mCherry fused as reporter; stably transfected HEK cells, also E. coli cells

[1] = biological target: T2, LOV (LOV sensor of aureochrome1a) (Phaeodactylum tricornutum, UniProt A0A140UHJ0, I28V); assay: light-induced FTIR difference spectroscopy in vitro; assay type: binding; details: wild type compared with I264V; covalent photoadduct with Cys287 on illumination
T2 construct: isolated LOV sensor domain without bZIP effector; transiently transfected HEK cells, also E. coli cells and in vitro

[2] = biological target: T3, LOV (LOV sensor of aureochrome1a) (Phaeodactylum tricornutum, UniProt A0A140UHJ0, I28V, form not given); assay: light-induced in-cell ATR-FTIR difference spectroscopy (ICIRD); assay type: cell-based; details: living HEK cells, 37 °C, blue light; covalent photoadduct with Cys287 on illumination, noncovalent in dark; also in vitro and E. coli cells
T3 construct: isolated LOV sensor domain without bZIP effector; transiently transfected HEK cells, also E. coli cells and in vitro
T3 sequence (A0A140UHJ0 entry or part of it I28V, form open): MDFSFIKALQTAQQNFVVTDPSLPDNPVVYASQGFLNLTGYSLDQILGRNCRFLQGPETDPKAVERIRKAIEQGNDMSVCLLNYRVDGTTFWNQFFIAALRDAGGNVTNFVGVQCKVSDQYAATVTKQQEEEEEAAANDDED

T1 sequence (Q42696 entry or part of it): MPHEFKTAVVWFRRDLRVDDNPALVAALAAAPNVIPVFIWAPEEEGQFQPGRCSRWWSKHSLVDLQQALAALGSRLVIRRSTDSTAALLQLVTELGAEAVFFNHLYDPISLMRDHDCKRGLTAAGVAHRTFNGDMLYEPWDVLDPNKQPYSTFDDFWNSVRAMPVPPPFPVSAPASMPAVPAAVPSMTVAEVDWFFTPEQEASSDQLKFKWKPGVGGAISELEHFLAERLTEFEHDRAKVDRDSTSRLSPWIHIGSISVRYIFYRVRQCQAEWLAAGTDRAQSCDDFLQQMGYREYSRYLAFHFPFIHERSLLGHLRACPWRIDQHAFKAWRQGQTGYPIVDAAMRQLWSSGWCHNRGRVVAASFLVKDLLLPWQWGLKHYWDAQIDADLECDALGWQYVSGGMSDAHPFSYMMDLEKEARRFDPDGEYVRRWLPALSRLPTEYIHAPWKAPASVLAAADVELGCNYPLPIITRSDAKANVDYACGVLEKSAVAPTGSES
T2 sequence (A0A140UHJ0 entry or part of it I28V): as the sequence (A0A140UHJ0 entry or part of it I28V, form open) above

Cc1cc2nc3c(=O)[nH]c(=O)nc-3n(C[C@H](O)[C@H](O)[C@H](O)COP(=O)(O)OP(=O)(O)OC[C@H]3O[C@@H](n4cnc5c(N)ncnc54)[C@H](O)[C@@H]3O)c2cc1C [flavin adenine dinucleotide]
light-induced in-cell ATR-FTIR difference spectroscopy (ICIRD) (pCRY-PHR): photoreaction of the oxidized flavin to the flavin neutral radical in pCRY-PHR

Cc1cc2nc3c(=O)[nH]c(=O)nc-3n(C[C@H](O)[C@H](O)[C@H](O)COP(=O)(O)O)c2cc1C [flavin mononucleotide]
light-induced FTIR difference spectroscopy in vitro [1]: without altering the mechanism (Figure S6A) | light-induced in-cell ATR-FTIR difference spectroscopy (ICIRD) [2]: formation of the cysteine adduct from the oxidized flavin
